Results taken from patent US10196357B2, “Biaryl compositions and methods for modulating a kinase cascade” (Athenex, Inc., priority 2007, dated 2019).
Where two headings read alike, the source gives them in different places.

How the values were obtained:
c-Src 3T3 cells = assay: BrdU cell growth inhibition, c-Src 3T3; assay type: cell-based, mouse; settings: for activity at 0.1 µM / activity at 1 µM / activity at 10 µM: NIH3T3, read-out: c-Src 3T3 Growth, % of Control Mean, n = 3; for activity at 0.1 µM: 100 nM; for GI50: c-Src 3T3 (c-Src527F/NIH3T3) cells
Description: (§1) The GI50s for several of the compounds of the invention were assayed as described herein.
The cells were routinely cultured in DMEM supplemented with Fetal Bovine Serum (2.0% v/V), L-glutamine (2 mM) and Sodium Pyruvate (1 mM).
(§2) In the BrdU Assay for cell growth inhibition, quantitation of cell proliferation was based on the measurement of BrdU incorporation during DNA synthesis. The Cell Proliferation ELISA BrdU assay kit (colorimetric) was obtained from Roche Applied Science and performed as per vendor instructions.
(§3) The growth inhibition (GI) is determined from the formula GI=(T0−Tn×100/T0−CONn) where T0 is the BrdU growth of untreated cells at time “0”, Tn is the BrdU growth of treated cells at day “n” and CONn is the control BrdU growth of control cells at day “n”. The GI50 was extrapolated and the data plotted using XL-Fit 4.0 software.
(§4) For 96 well culture plate experiments, c-Src 3T3 medium was supplemented with 10 mM HEPES buffer. HT-29 cells were seeded in standard tissue culture 96-well plates and c-Src 3T3 cells were seeded in 96-well plates coated with Poly-D-lysine (BIOCOAT™). To increase CO2 diffusion, c-Src 3T3 96-well plates were incubated with their lids raised by ˜2 mm using sterile rubber caps.
(§5) Samples were reconstituted in DMSO at 20 mM and intermediate dilutions made using DMEM containing 10% FBS. […] Plates were assayed for BrdU and the data analyzed as above for GI50.
(§6) All compounds were initially prepared as 20 mM DMSO stock solutions and then diluted into buffer for the in vitro tumor growth assays. NG means no cell growth beyond the control and T means the number of cells in the drug treated wells was less than in the control (i.e. net cell loss).

HT29 cell line = assay: BrdU cell growth inhibition, HT29; assay type: cell-based, human; settings: for activity at 0.05 µM / activity at 0.5 µM / activity at 5 µM: HT-29, read-out: HT-29 Growth, % of Control Mean, n = 3; for activity at 0.05 µM: 50 nM; for activity at 0.5 µM: 500 nM
Description: as §1
The HT29 cell line is a NCI standard human colon carcinoma cell line.
as §2, §3, §4, §5, §6
Growth Inhibition. […] T1 values≤T0 values were designated as T, cytotoxicity.

[1] = Homo sapiens, HT-29, HT29 (Colon) cells, read-out: GI50

GI50 (HT29 cell line; HT29 (Colon) cells)	GI50 (HT29 cell line; [1]) [nM]	SMILES	activity at 0.1 µM (c-Src 3T3 cells; Mus musculus) [%]	activity at 1 µM (c-Src 3T3 cells; Mus musculus) [%]	activity at 10 µM (c-Src 3T3 cells; Mus musculus) [%]	activity at 0.05 µM (HT29 cell line; Homo sapiens) [%]	activity at 0.5 µM (HT29 cell line; Homo sapiens) [%]	activity at 5 µM (HT29 cell line; Homo sapiens) [%]	GI50 (c-Src 3T3 cells)	GI50 (c-Src 3T3 cells; Mus musculus, read-out: GI50) [nM]
–	–	CCOc1ccc(-c2ccc(CC(=O)NCc3cc(F)cc(OCCN4CCCCC4)c3)nc2)cc1 [KX2-380]	124	119	< 0	100	50	< 0	–	–
–	–	O=C(Cc1ccc(-c2ccccc2)nc1)NCc1cccc(F)c1 [KX1-314, N (3-fluorobenzyl)-2-phenylpyridine-5-acetamide]	93.6	88.4	39.3	53.2	83.7	14.4	–	–
–	–	O=C(Cc1ccc(-c2cccc(Cl)c2)nc1)NCc1cccc(F)c1 [KX1-317, 2-[6-(3-Chloro-phenyl)-pyridin-3-yl]-N-(3-fluoro-benzyl)-acetamide]	94.2	85.6	< 0	83.5	64	< 0	–	–
–	–	CC(C)COc1cc(F)cc(CNC(=O)Cc2ccc(-c3ccc(N4CCCCC4)cc3)cn2)c1 [KX2-371]	75	72	16	98	33	16	–	–
–	–	CCc1ccc(-c2ccc(CC(=O)NCc3cccc(F)c3)cn2)cc1 [KX1-318, 2-[6-(4-Ethyl-phenyl)-pyridin-3-yl]-N-(3-fluoro-benzyl)-acetamide]	91.4	71	< 0	165	93.2	< 0	–	–
–	–	O=C(Cc1ccc(-c2ccc(F)cc2)cc1)NCc1cccc(F)c1 [KX1-311, N-(3-fluorobenzyl)-4-(4-fluorophenyl)phenylacetamide]	81.3	< 0	< 0	60.4	< 0	< 0	–	–
inactive (c-Src 3T3); inactive (HT-29)	–	O=C(Cc1ccc(-c2ccccc2)c[n+]1[O-])NCc1cccc(F)c1 [KX1-329 N-oxide]	–	–	–	–	–	–	inactive (c-Src 3T3); inactive (HT-29)	–
–	–	CCOc1ccccc1-c1ccc(CC(=O)NCc2cccc(F)c2)cn1 [KX1-324, 2-[6-(2-Ethoxy-phenyl)-pyridin-3-yl]-N-(3-fluoro-benzyl)-acetamide]	96	90	< 0	91	95.7	0	–	–
–	67	O=C(Cc1ccc(-c2ccc(N3CCCCC3)cc2)cn1)NCc1cccc(F)c1 [KX2-372]	< 0	< 0	< 0	< 0	< 0	< 0	–	58
–	> 400	CN1CCN(Cc2ccc(-c3ccc(CC(=O)NCc4cccc(F)c4)nc3)cc2)CC1 [KX2-376]	< 0	< 0	< 0	96	93	< 0	–	> 1600
–	375	CCOc1ccc(-c2ccc(CC(=O)NCc3cc(F)cc(OCC4CCN(C)CC4)c3)nc2)cc1 [KX2-381]	116	< 0	< 0	58	< 0	< 0	–	914
–	45	CCOc1ccc(-c2ccc(CC(=O)NCc3cccc(F)c3)nc2)cc1 [KX2-359]	< 0	< 0	< 0	< 0	< 0	< 0	–	34
–	–	O=C(Cc1ccc(-c2ccc(CN3CCCCC3)cc2)cn1)NCc1cccc(F)c1 [KX2-364]	92	81	< 0	105	80	< 0	–	–
